Data published in PubChem BioAssay (NCI).
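Results reflect a 48-hour exposure of cells in 96-well plates to compound at five concentrations. Abbreviation: GI50, concentration required for 50% inhibition of growth. TGI: concentration producing complete growth inhibition.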

Assays:
Test in all cases: NCI-60 cell line screen, 48 h
[1] = tested on: HT29 colon
[2] = tested on: RPMI-8226 leukemia
[3] = tested on: NCI-H522 lung
[4] = tested on: SF-268 CNS
[5] = tested on: HL-60(TB) leukemia
[6] = tested on: SW-620 colon
[7] = tested on: MDA-MB-435
[8] = tested on: TK-10 renal
[9] = tested on: 786-0 renal
[10] = tested on: HOP-62 NSCLC
[11] = tested on: HOP-92 NSCLC
[12] = tested on: NCI-H460 lung
[13] = tested on: SF-295 CNS
[14] = tested on: SK-MEL-28 melanoma
[15] = tested on: EKVX NSCLC
[16] = tested on: BT-549 breast
[17] = tested on: SNB-19 CNS
[18] = tested on: COLO 205 colon
[19] = tested on: UO-31 renal
[20] = tested on: U251 CNS
[21] = tested on: NCI-H226 lung
[22] = tested on: CCRF-CEM leukemia
[23] = tested on: DU-145 prostate
[24] = tested on: NCI/ADR-RES ovarian
[25] = tested on: OVCAR-4 ovarian
[26] = tested on: SR leukemia
[27] = tested on: SK-MEL-5 melanoma
[28] = tested on: SF-539 CNS
[29] = tested on: MDA-MB-231 breast
[30] = tested on: SNB-75 CNS
[31] = tested on: LOX IMVI melanoma
[32] = tested on: K-562 leukemia
[33] = tested on: MOLT-4 leukemia
[34] = tested on: A498 renal
[35] = tested on: HCT-15 colon
[36] = tested on: CAKI-1 renal
[37] = tested on: HS 578T breast
[38] = tested on: HCT-116 colon
[39] = tested on: HCC-2998 colon
[40] = tested on: NCI-H23 lung
[41] = tested on: UACC-62 melanoma
[42] = tested on: IGROV1 ovarian
[43] = tested on: OVCAR-5 ovarian
[44] = tested on: UACC-257 melanoma
[45] = tested on: KM12 colon
[46] = tested on: M14 melanoma
[47] = tested on: SK-OV-3 ovarian
[48] = tested on: PC-3 prostate
[49] = tested on: MCF7 breast
[50] = tested on: ACHN renal
[51] = tested on: T-47D breast
[52] = tested on: A549 NSCLC
[53] = tested on: OVCAR-3 ovarian
[54] = tested on: RXF 393 renal
[55] = tested on: SK-MEL-2 melanoma
[56] = tested on: OVCAR-8 ovarian
[57] = tested on: SN12C renal
[58] = tested on: MALME-3M melanoma

COc1cc2c3c(n(CCCN)c(=O)c2cc1OC)-c1ccc(N(C)C)cc1C3=O
GI50 [1]: 1540 nM | TGI [1]: 2940 nM | GI50 [2]: 2000 nM | TGI [2]: 4680 nM | GI50 [3]: 17300 nM | TGI [3]: 38100 nM | GI50 [4]: 16100 nM | TGI [4]: 46100 nM | GI50 [5]: 21600 nM | TGI [5]: 47700 nM | GI50 [6]: 1950 nM | TGI [6]: 3760 nM | GI50 [7]: 22600 nM | TGI [7]: 46300 nM | GI50 [8]: 18500 nM | TGI [8]: 37200 nM | GI50 [9]: 5290 nM | TGI [9]: 11800 nM | GI50 [10]: 16800 nM | TGI [10]: 31900 nM | GI50 [11]: 6800 nM | TGI [11]: 22800 nM | GI50 [12]: 4450 nM | TGI [12]: 26100 nM | GI50 [13]: 17600 nM | TGI [13]: 37900 nM | GI50 [14]: 12300 nM | TGI [14]: 27600 nM | GI50 [15]: 16700 nM | TGI [15]: 32000 nM | GI50 [16]: 14500 nM | TGI [16]: 28800 nM | GI50 [17]: 16900 nM | TGI [17]: 33700 nM | GI50 [18]: 17400 nM | TGI [18]: 35500 nM | GI50 [19]: 16900 nM | TGI [19]: 36100 nM | GI50 [20]: 16500 nM | TGI [20]: 31100 nM | GI50 [21]: 23900 nM | TGI [21]: 49500 nM | GI50 [22]: 1980 nM | TGI [22]: 5160 nM | GI50 [23]: 2380 nM | TGI [23]: 6600 nM | GI50 [24]: 13900 nM | TGI [24]: 43200 nM | GI50 [25]: 17500 nM | TGI [25]: 33800 nM | GI50 [26]: 18700 nM | TGI [26]: 74500 nM | GI50 [27]: 6400 nM | TGI [27]: 13700 nM | GI50 [28]: 1920 nM | TGI [28]: 3660 nM | GI50 [29]: 11900 nM | TGI [29]: 25500 nM | GI50 [30]: 22500 nM | TGI [30]: 46000 nM | GI50 [31]: 2050 nM | TGI [31]: 4450 nM | GI50 [32]: 4090 nM | TGI [32]: 17400 nM | GI50 [33]: 7010 nM | TGI [33]: 19500 nM | GI50 [34]: 21000 nM | TGI [34]: 37200 nM | GI50 [35]: 13900 nM | TGI [35]: 27100 nM | GI50 [36]: 22700 nM | TGI [36]: 47500 nM | GI50 [37]: 27900 nM | TGI [37]: 61500 nM | GI50 [38]: 2420 nM | TGI [38]: 6070 nM | GI50 [39]: 3290 nM | TGI [39]: 7680 nM | GI50 [40]: 16600 nM | TGI [40]: 30500 nM | GI50 [41]: 21600 nM | TGI [41]: 42200 nM | GI50 [42]: 14800 nM | TGI [42]: 47000 nM | GI50 [43]: 17000 nM | TGI [43]: 31400 nM | GI50 [44]: 23500 nM | TGI [44]: 48300 nM | GI50 [45]: 2340 nM | TGI [45]: 4850 nM | GI50 [46]: 16400 nM | TGI [46]: 32600 nM | GI50 [47]: 21000 nM | TGI [47]: 42700 nM | GI50 [48]: 1690 nM | TGI [48]: 3140 nM | GI50 [49]: 14800 nM | TGI [49]: 36700 nM | GI50 [50]: 17400 nM | TGI [50]: 31500 nM | GI50 [51]: 20000 nM | TGI [51]: 41000 nM | GI50 [52]: 18000 nM | TGI [52]: 52000 nM | GI50 [53]: 20400 nM | TGI [53]: 42200 nM | GI50 [54]: 6530 nM | TGI [54]: 14800 nM | GI50 [55]: 19600 nM | TGI [55]: 38100 nM | GI50 [56]: 7220 nM | TGI [56]: 33700 nM | GI50 [57]: 16900 nM | TGI [57]: 32000 nM | GI50 [58]: 9330 nM | TGI [58]: 29900 nM

C#CCNCCCN1C(=O)c2ccc3c4c(ccc(c24)C1=O)C(=O)N(CCCNCC#C)C3=O
GI50 [1]: 76.6 nM | TGI [1]: 539 nM | GI50 [2]: 404 nM | TGI [2]: 4180 nM | GI50 [3]: 251 nM | TGI [3]: 841 nM | GI50 [4]: 404 nM | TGI [4]: 3050 nM | GI50 [5]: 305 nM | TGI [5]: 988 nM | GI50 [6]: 154 nM | TGI [6]: 992 nM | GI50 [7]: 189 nM | TGI [7]: 404 nM | GI50 [8]: 689 nM | TGI [8]: 6880 nM | GI50 [9]: 778 nM | TGI [9]: 5360 nM | GI50 [10]: 267 nM | TGI [10]: 1560 nM | GI50 [11]: 1790 nM | TGI [11]: 7740 nM | GI50 [12]: 101 nM | TGI [12]: 363 nM | GI50 [13]: 119 nM | TGI [13]: 514 nM | GI50 [14]: 613 nM | TGI [14]: 2160 nM | GI50 [15]: 302 nM | TGI [15]: 1130 nM | GI50 [16]: 1440 nM | TGI [16]: 2890 nM | GI50 [17]: 328 nM | TGI [17]: 1450 nM | GI50 [18]: 91.1 nM | TGI [18]: 238 nM | GI50 [19]: 260 nM | TGI [19]: 1380 nM | GI50 [20]: 223 nM | TGI [20]: 1020 nM | GI50 [21]: 151 nM | TGI [21]: 551 nM | GI50 [22]: 295 nM | TGI [22]: 2890 nM | GI50 [23]: 219 nM | TGI [23]: 600 nM | GI50 [24]: 467 nM | TGI [24]: 3810 nM | GI50 [25]: 137 nM | TGI [25]: 279 nM | GI50 [26]: 219 nM | TGI [26]: 1040 nM | GI50 [27]: 140 nM | TGI [27]: 274 nM | GI50 [28]: 470 nM | TGI [28]: 1750 nM | GI50 [29]: 670 nM | TGI [29]: 5920 nM | GI50 [30]: 451 nM | TGI [30]: 1690 nM | GI50 [31]: 205 nM | TGI [31]: 637 nM | GI50 [32]: 230 nM | TGI [32]: 1630 nM | GI50 [33]: 188 nM | TGI [33]: 869 nM | GI50 [34]: 312 nM | TGI [34]: 1410 nM | GI50 [35]: 206 nM | TGI [35]: 809 nM | GI50 [36]: 237 nM | TGI [36]: 955 nM | GI50 [37]: 919 nM | TGI [37]: 4760 nM | GI50 [38]: 157 nM | TGI [38]: 1950 nM | GI50 [39]: 242 nM | TGI [39]: 766 nM | GI50 [40]: 220 nM | TGI [40]: 669 nM | GI50 [41]: 384 nM | TGI [41]: 1070 nM | GI50 [42]: 187 nM | TGI [42]: 972 nM | GI50 [43]: 534 nM | TGI [43]: 2610 nM | GI50 [44]: 181 nM | TGI [44]: 342 nM | GI50 [45]: 284 nM | TGI [45]: 1330 nM | GI50 [46]: 317 nM | TGI [46]: 987 nM | GI50 [47]: 645 nM | TGI [47]: 4320 nM | GI50 [48]: 463 nM | TGI [48]: 4410 nM | GI50 [49]: 132 nM | TGI [49]: 328 nM | GI50 [50]: 144 nM | TGI [50]: 1740 nM | GI50 [51]: 1020 nM | TGI [51]: 3900 nM | GI50 [52]: 134 nM | TGI [52]: 393 nM | GI50 [53]: 277 nM | TGI [53]: 957 nM | GI50 [54]: 228 nM | TGI [54]: 1070 nM | GI50 [55]: 244 nM | TGI [55]: 729 nM | GI50 [56]: 180 nM | TGI [56]: 1550 nM | GI50 [57]: 214 nM | TGI [57]: 949 nM | GI50 [58]: 158 nM | TGI [58]: 373 nM
